Measured values taken from ChEMBL document CHEMBL3797071, “Repurposing strategies for tropical disease drug discovery” (Bioorg Med Chem Lett, 2016).

Tests used:
L929 = experiment: Cytotoxicity against mouse L929 cells; type: cell-based
[1] = Inhibition of Trypanosoma brucei LeuRS assessed as formation of stable tRNA(Leu)-compound adduct in editing site of enzyme
Trypanosoma brucei = experiment: Antiparasitic activity against Trypanosoma brucei […]; type: functional, organism-based
Brugia pahangi [2] = experiment: Antifilarial activity against Brugia pahangi infected in gerbils assessed as reduction in worm burden at 5 mg/kg, sid in weekends for 28 days; type: functional, organism-based; set-up: scale not given: the % may be the effect or the level left
[3] = Selectivity ratio of IC50 for Onchocerca ochengi to IC50 for microfilariae of Loa loa; type: functional
Brugia pahangi [4] = experiment: Antifilarial activity against Brugia pahangi infected in gerbils assessed as reduction in worm burden at 5 mg/kg, bid in weekdays for 28 days; type: functional, organism-based; set-up: scale not given: the % may be the effect or the level left
Leishmania chagasi [5] = experiment: Antiparasitic activity against amastigote stage of Leishmania chagasi MHOM/BR/1972/LD infected in golden hamster assessed as reduction in parasite load at 20 mg/kg, ip administered for 15 days measured after 4 weeks by limiting dillution method; type: functional; set-up: scale not given: the % may be the effect or the level left
Leishmania braziliensis = experiment: Antiparasitic activity against promastigote stage of Leishmania braziliensis MHOM/BR/2001/BA788 infected in BALB/c mouse assessed as reduction in parasite load at 20 mg/kg, ip administered for 15 days measured after 6 weeks by limiting dillution method; type: functional; set-up: scale not given: the % may be the effect or the level left
Leishmania chagasi [6] = experiment: Antiparasitic activity against amastigote stage of Leishmania chagasi MHOM/BR/1972/LD infected in golden hamster assessed as golden hamster survival rate at 20 mg/kg, ip after 18 weeks by limiting dillution method; type: functional

Compound | EC50 (L929) | IC50 [1] | EC50 (Trypanosoma brucei) | further results
CCOC(=O)COc1ccc2c(c1)B(O)OC2 | > 40 µM | 3.5 µM | 0.72 µM | 
OB1OCc2cc(F)ccc21 [TAVABOROLE] |  | 22.1 µM |  | 
AURANOFIN |  |  |  | Activity (Brugia pahangi [2]): 91%; Ratio IC50 [3]: 43; Activity (Brugia pahangi [4]): 58%
CC/C(=C(\c1ccccc1)c1ccc(OCCN(C)C)cc1)c1ccccc1 [TAMOXIFEN] |  |  |  | Activity (Leishmania chagasi [5]): 95%; Activity (Leishmania braziliensis): 95%; Activity (Leishmania chagasi [6]): 100%
CC(=O)C(C)(C)Oc1ccc2c(c1)B(O)OC2 | > 40 µM | 5 µM | 0.37 µM | 
